Patent US12661410B2, “Compounds for targeted degradation of RET” (C4 Therapeutics, Inc., priority 2020, dated 2026)
Residue numbers refer to the chain shown, from its start. Where two headings read alike, the source gives them in different places.

Experiments:
RET (658-1114) = biological target: T1, RET (658-1114) (Homo sapiens, UniProt P07949); experiment: HiBiT-Degradation, RET wild-type degradation assay (Nano-Glo HiBiT Lytic), 293T.144 cells; assay type: cell-based; conditions: for DC50 / Emax: 6.0 hours; for DC50: read-out: 293T.144 RET (658-1114) 6.0 hours (DC50); for Emax: read-out: 293T.144 RET (658-1114) 6.0 hours (Emax)
T1 construct: 658-1114; expressed in transfected cells; host or cells: 293T.144 (293T cells, generated in-house)
T1 sequence (P07949 658-1114): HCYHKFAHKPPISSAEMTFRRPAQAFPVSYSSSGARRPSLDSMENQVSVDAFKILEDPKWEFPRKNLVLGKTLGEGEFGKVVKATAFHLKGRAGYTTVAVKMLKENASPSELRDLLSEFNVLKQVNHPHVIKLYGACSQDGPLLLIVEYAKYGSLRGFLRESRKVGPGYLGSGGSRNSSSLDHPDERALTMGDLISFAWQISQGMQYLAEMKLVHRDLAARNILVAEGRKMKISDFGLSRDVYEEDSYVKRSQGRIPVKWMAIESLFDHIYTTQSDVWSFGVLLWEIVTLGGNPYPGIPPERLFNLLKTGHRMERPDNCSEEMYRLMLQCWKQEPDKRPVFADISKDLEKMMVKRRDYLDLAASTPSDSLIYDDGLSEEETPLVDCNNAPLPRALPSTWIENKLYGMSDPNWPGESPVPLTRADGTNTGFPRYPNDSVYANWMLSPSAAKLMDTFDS
How it was run: (§1)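 Degradation after 6 h compound exposure (top 10 μM, 11 half-log points, duplicates) measured by Nano-Glo HiBiT lytic luminescence. Cells: 293T.144 carrying wild-type and 293T.165 carrying G810R HiBiT-RET kinase domain; curves yield DC50 and Emax.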

RET(KD: 658-1114 G810R) = biological target: T2, RET(KD: 658-1114 G810R) (Homo sapiens, UniProt P07949, G810R); experiment: HiBiT-Degradation, RET G810R degradation assay (Nano-Glo HiBiT Lytic), 293T.165 cells; assay type: cell-based; conditions: for Emax / DC50: 6.0 hours; for Emax: % remaining protein, read-out: 293T.165 RET(KD: 658-1114 G810R) 6.0 hours (Emax); for DC50: read-out: 293T.165 RET(KD: 658-1114 G810R) 6.0 hours (DC50)
T2 construct: 658-1114; expressed in transfected cells; host or cells: 293T.165 (293T cells, generated in-house)
T2 sequence (P07949 658-1114 G810R): T1 sequence (P07949 658-1114) with G153R
How it was run: as §1

[1] = half-maximal degradation concentration

SMILES | 293T.144 RET (658-1114) 6.0 hours (IP) [nM] (RET (658-1114); HiBiT-Degradation) | DC50 (RET (658-1114); HiBiT-Degradation) | Emax (RET (658-1114); HiBiT-Degradation) | Emax (RET(KD: 658-1114 G810R)) | DC50 (RET(KD: 658-1114 G810R); [1]) | 293T.165 RET(KD: 658-1114 G810R) 6.0 hours (Emax) (RET(KD: 658-1114 G810R); HiBiT-Degradation) | 293T.165 RET(KD: 658-1114 G810R) 6.0 hours (IP) [nM] (RET(KD: 658-1114 G810R); HiBiT-Degradation) | DC50 (RET(KD: 658-1114 G810R); HiBiT-Degradation) | 293T.144 RET (658-1114) 6.0 hours (IP) [nM] (RET (658-1114)) | Emax (RET (658-1114); % remaining protein) | DC50 (RET (658-1114); [1]) | 293T.165 RET(KD: 658-1114 G810R) 6.0 hours (IP) [nM] (RET(KD: 658-1114 G810R))
C[C@H](c1ccccn1)N1CCN(c2ccc(-c3nc(-c4cnn(C5CCN(C(=O)CC6(O)CCN(c7ccc(NC8CCC(=O)NC8=O)cc7F)CC6)CC5)c4)cn4ncc(C#N)c34)cn2)CC1 (stereo partly drawn) [Compound 1, 6-[1-[1-[2-[1-[4-[(2,6-dioxo-3-piperidyl)amino]-2-fluoro-phenyl]-4-hydroxy-4-piperidyl]acetyl]-4-piperidyl]pyrazol-4-yl]-4-[6-[4-[(1R)-1-(2-pyridyl)ethyl]piperazin-1-yl]-3-pyridyl]pyrazolo[1,5-a]pyrazine-3-carbonitrile] | ++++ (< 50 nM = ++++) | < 50 nM | < 30% | < 50% | < 50 nM | +++ (<50% = +++) | ++++ (< 50 nM = ++++) | < 50 nM | – | – | – | –
N#Cc1cnn2cc(-c3cnn(C4CCN(C(=O)CN5CCC(c6ccc(NC7CCC(=O)NC7=O)cc6F)CC5)CC4)c3)cc(-c3ccc(N4CC5CCC(C4)N5Cc4ccccn4)nc3)c12 (stereo not drawn) [Compound 62, 6-[1-[1-[2-[4-[4-[(2,6-dioxo-3-piperidyl)amino]-2-fluoro-phenyl]-1-piperidyl]acetyl]-4-piperidyl]pyrazol-4-yl]-4-[6-[8-(2-pyridylmethyl)-3,8-diazabicyclo[3.2.1]octan-3-yl]-3-pyridyl]pyrazolo[1,5-a]pyridine-3-carbonitrile] | ++++ (< 50 nM = ++++) | < 50 nM | < 30% | < 50% | < 100 nM | +++ (<50% = +++) | ++++ (< 50 nM = ++++) | < 100 nM | – | – | – | –
CC(C)NC(=O)C1(C)CCN(c2ccc(-c3cc(-c4ccc(N5CCN(C(=O)CC6(O)CCN(c7ccc(NC8CCC(=O)NC8=O)cc7F)CC6)CC5)cc4)cn4ncc(C#N)c34)cn2)CC1 (stereo not drawn) [Compound 32, 1-(5-(3-Cyano-6-(4-(4-(2-(1-(4-((2,6-dioxopiperidin-3-yl)amino)-2-fluorophenyl)-4-hydroxypiperidin-4-yl)acetyl)piperazin-1-yl)phenyl)pyrazolo[1,5-a]pyridin-4-yl)pyridin-2-yl)-N-isopropyl-4-methylpiperidine-4-carboxamide] | ++++ (< 50 nM = ++++) | < 50 nM | < 30% | < 50% | < 50 nM | +++ (<50% = +++) | ++++ (< 50 nM = ++++) | < 50 nM | – | – | – | –
CCC1(C(=O)NC2CCC2)CCN(c2ccc(-c3nc(-c4cnn([C@H]5CC[C@H](N6CCC(c7ccc(N[C@H]8CCC(=O)NC8=O)cc7)CC6)CC5)c4)cn4ncc(C#N)c34)cn2)CC1 (single isomer, unassigned) [Compound 127] | – | – | – | < 30% | < 50 nM | – | – | – | ++++ (<50 nM = ++++) | < 30% | < 50 nM | ++++ (<50 nM = ++++)
COc1ccc(CN2C3CC2CN(c2ccc(-c4nc(-c5cnn([C@H]6CC[C@H](N7CCN(c8cc(OC)c(NC9CCC(=O)NC9=O)cc8F)CC7)CC6)c5)cn5ncc(C#N)c45)cn2)C3)cn1 (relative stereo) [Compound 167, 6-[1-[4-[4-[4-[(2,6-dioxo-3-piperidyl)amino]-2-fluoro-5-methoxy-phenyl]piperazin-1-yl]cyclohexyl]pyrazol-4-yl]-4-[6-[6-[(6-methoxy-3-pyridyl)methyl]-3,6-diazabicyclo[3.1.1]heptan-3-yl]-3-pyridyl]pyrazolo[1,5-a]pyrazine-3-carbonitrile] | – | – | – | < 30% | < 50 nM | – | – | – | ++++ (<50 nM = ++++) | < 30% | < 50 nM | ++++ (<50 nM = ++++)
N#Cc1cnn2cc(-c3cnn(C4CCN(C(=O)CC5(O)CCN(c6ccc(NC7CCC(=O)NC7=O)cc6F)CC5)CC4)c3)nc(-c3ccc(N4CCN(C(=O)c5ccon5)CC4)nc3)c12 (stereo not drawn) [Compound 116, 6-(1-(1-(2-(1-(4-((2,6-dioxopiperidin-3-yl)amino)-2-fluorophenyl)-4-hydroxypiperidin-4-yl)acetyl)piperidin-4-yl)-1H-pyrazol-4-yl)-4-(6-(4-(isoxazole-3-carbonyl)piperazin-1-yl)pyridin-3-yl)pyrazolo[1,5-a]pyrazine-3-carbonitrile] | – | – | – | < 30% | < 50 nM | – | – | – | ++++ (<50 nM = ++++) | < 30% | < 50 nM | ++++ (<50 nM = ++++)
COc1ccc(NC2CCN(c3ccc(-c4nc(-c5cnn([C@H]6CC[C@@H](N7CCN(c8c(F)cc(NC9CCC(=O)NC9=O)cc8F)CC7)CC6)c5)cn5ncc(C#N)c45)cn3)CC2)cn1 (single isomer, unassigned) [Compound 203, 6-(1-((1s, 4s)-4-(4-(4-((2,6-Dioxopiperidin-3-yl)amino)-2,6-difluorophenyl)piperazin-1-yl)cyclohexyl)-1H-pyrazol-4-yl)-4-(6-(4-((6-methoxypyridin-3-yl)amino)piperidin-1-yl)pyridin-3-yl)pyrazolo[1,5-a]pyrazine-3-carbonitrile] | – | – | – | < 30% | < 50 nM | – | – | – | ++++ (<50 nM = ++++) | < 30% | < 50 nM | ++++ (<50 nM = ++++)
CCC1(c2ncccn2)CCN(c2ccc(-c3nc(-c4cnn([C@H]5CC[C@H](N6CCC(c7ccc(N[C@H]8CCC(=O)NC8=O)cc7F)CC6)CC5)c4)cn4ncc(C#N)c34)cn2)CC1 (single isomer, unassigned) [Compound 139] | – | – | – | < 30% | < 50 nM | – | – | – | ++++ (<50 nM = ++++) | < 30% | < 50 nM | ++++ (<50 nM = ++++)
CCC1(C(=O)NC(C)C)CCN(c2ccc(-c3nc(-c4cnn(C5CCN(C(=O)CC6(O)CC7(CN(c8ccc(NC9CCC(=O)NC9=O)cc8F)C7)C6)CC5)c4)cn4ncc(C#N)c34)cn2)CC1 (stereo not drawn) [Compound 97, 1-[5-[3-cyano-6-[1-[1-[2-[2-[4-[(2,6-dioxo-3-piperidyl)amino]-2-fluoro-phenyl]-6-hydroxy-2-azaspiro[3.3]heptan-6-yl]acetyl]-4-piperidyl]pyrazol-4-yl]pyrazolo[1,5-a]pyrazin-4-yl]-2-pyridyl]-4-ethyl-N-isopropyl-piperidine-4-carboxamide] | – | – | – | < 50% | < 100 nM | – | – | – | ++++ (<50 nM = ++++) | < 30% | < 50 nM | ++++ (<50 nM = ++++)
CCC1(C(=O)NC(C)C)CCN(c2ccc(-c3nc(-c4cnn(C5CC6(C5)CN(C(=O)CC5(O)CCN(c7ccc(NC8CCC(=O)NC8=O)cc7F)CC5)C6)c4)cn4ncc(C#N)c34)cn2)CC1 (stereo not drawn) [Compound 183, 1-[5-[3-cyano-6-[1-[2-[2-[1-[4-[(2,6-dioxo-3-piperidyl)amino]-2-fluoro-phenyl]-4-hydroxy-4-piperidyl]acetyl]-2-azaspiro[3.3]heptan-6-yl]pyrazol-4-yl]pyrazolo[1,5-a]pyrazin-4-yl]-2-pyridyl]-4-ethyl-N-isopropyl-piperidine-4-carboxamide] | – | – | – | < 30% | < 50 nM | – | – | – | ++++ (<50 nM = ++++) | < 30% | < 50 nM | ++++ (<50 nM = ++++)
